Laboratory results from patent US6777425B2, “Isoquinoline compounds having antiinfective activity” (Genesoft Pharmaceuticals, Inc., priority 2001, dated 2004).

What was measured:
S. pneumoniae ATCC 49619 = test: NCCLS broth microdilution MIC, S. pneumoniae ATCC 49619; format: cell-based, Streptococcus pneumoniae; settings: organism H = S. pneumoniae ATCC 49619
Excerpt: (§1) Compounds according to this invention were screened for their in vitro activities against selected species of bacteria and fungi. […]

S. aureus ATCC 27660 = test: NCCLS broth microdilution MIC, S. aureus (MRSA); format: cell-based, Staphylococcus aureus; settings: organism F = S. aureus ATCC 27660 (MRSA)
Excerpt: as §1

S. aureus ATCC 13709 = test: NCCLS broth microdilution MIC, S. aureus (MSSA); format: cell-based, Staphylococcus aureus; settings: organism E = S. aureus ATCC 13709 (MSSA)
Excerpt: as §1

S. pneumoniae ATCC 51422 = test: NCCLS broth microdilution MIC, S. pneumoniae (PRSP); format: cell-based, Streptococcus pneumoniae; settings: organism I = S. pneumoniae ATCC 51422 (PRSP)
Excerpt: as §1

E. faecalis ATCC 29212 = test: NCCLS broth microdilution MIC, E. faecalis; format: cell-based; settings: organism C = E. faecalis ATCC 29212
Excerpt: as §1

[1] = system: S. epidermidis ATCC 12228; test: NCCLS broth microdilution MIC, S. epidermidis; format: cell-based, Staphylococcus epidermidis; settings: organism G = S. epidermidis ATCC 12228
Excerpt: as §1

C. albicans ATCC 38247 = test: Antifungal MIC, C. albicans; format: cell-based, Candida albicans; settings: organism B = C. albicans ATCC 38247
Excerpt: as §1

E. faecium ATCC 51559 = test: NCCLS broth microdilution MIC, E. faecium (VRE); format: cell-based, Enterococcus faecium; settings: organism D = E. faecium ATCC 51559 (VRE)
Excerpt: as §1

B. cereus ATCC 11778 = test: NCCLS broth microdilution MIC, B. cereus; format: cell-based, Bacillus cereus; settings: organism A = B. cereus ATCC 11778
Excerpt: as §1

[2] = Staphylococcus aureus, read-out: Minimum Inhibitory Concentration (MIC)

Row | SMILES | Minimum Inhibitory Concentration (MIC) (S. pneumoniae ATCC 49619) | Minimum Inhibitory Concentration (MIC) (S. aureus ATCC 27660) | Minimum Inhibitory Concentration (MIC) (S. aureus ATCC 13709) | Minimum Inhibitory Concentration (MIC) (S. pneumoniae ATCC 51422) | Minimum Inhibitory Concentration (MIC) (E. faecalis ATCC 29212) | Minimum Inhibitory Concentration (MIC) [1] | Minimum Inhibitory Concentration (MIC) (C. albicans ATCC 38247) | Minimum Inhibitory Concentration (MIC) (E. faecium ATCC 51559) | Minimum Inhibitory Concentration (MIC) (B. cereus ATCC 11778) | MIC (S. pneumoniae ATCC 49619; Streptococcus pneumoniae, ATCC49619, read-out: Minimum Inhibitory Concentration (MIC)) [µg/mL] | MIC (S. aureus ATCC 27660; [2]) [µg/mL] | MIC (S. aureus ATCC 13709; [2]) [µg/mL] | MIC (S. pneumoniae ATCC 51422; Streptococcus pneumoniae, read-out: Minimum Inhibitory Concentration (MIC)) [µg/mL] | MIC (E. faecalis ATCC 29212; Enterococcus faecalis, ATCC29212, read-out: Minimum Inhibitory Concentration (MIC)) [µg/mL] | MIC ([1]; Staphylococcus epidermidis, ATCC12228, read-out: Minimum Inhibitory Concentration (MIC)) [µg/mL] | MIC (C. albicans ATCC 38247; Candida albicans, ATCC38247, read-out: Minimum Inhibitory Concentration (MIC)) [µg/mL] | MIC (E. faecium ATCC 51559; Enterococcus faecium, read-out: Minimum Inhibitory Concentration (MIC)) [µg/mL] | MIC (B. cereus ATCC 11778; Bacillus cereus, ATCC11778, read-out: Minimum Inhibitory Concentration (MIC)) [µg/mL]
1 | Cn1cc(NC(=O)c2cc(NC(=O)c3cc(NC(=O)c4cc5ccccc5cn4)cs3)cn2C)cc1C(=O)NCCN1CCOCC1 [Ib-51] | +++ (+++ = MIC ≦ 4) | +++ (+++ = MIC ≦ 4) | +++ (+++ = MIC ≦ 4) | + (+ = 12 ≦ MIC ≦ 32) | +++ (+++ = MIC ≦ 4) | ++ (++ = 4 < MIC < 12) | ++ (++ = 4 < MIC < 12) | ++ (++ = 4 < MIC < 12) | +++ (+++ = MIC ≦ 4) | – | – | – | – | – | – | – | – | –
2 | Cn1cc(NC(=O)c2cc3ccccc3cn2)cc1C(=O)Nc1cc(C(=O)Nc2cc(C(=O)NCCN3CCOCC3)ns2)n(C)c1 [Ib-52] | +++ (+++ = MIC ≦ 4) | +++ (+++ = MIC ≦ 4) | +++ (+++ = MIC ≦ 4) | +++ (+++ = MIC ≦ 4) | +++ (+++ = MIC ≦ 4) | +++ (+++ = MIC ≦ 4) | >32 µg/mL | +++ (+++ = MIC ≦ 4) | +++ (+++ = MIC ≦ 4) | – | – | – | – | – | – | – | – | –
3 | Cn1cc(NC(=O)c2cc3ccccc3cn2)cc1C(=O)Nc1cc(C(=O)Nc2c[nH]c(C(=O)NCCN3CCSCC3)c2)n(C)c1 [Ib-54] | +++ (+++ = MIC ≦ 4) | +++ (+++ = MIC ≦ 4) | +++ (+++ = MIC ≦ 4) | +++ (+++ = MIC ≦ 4) | +++ (+++ = MIC ≦ 4) | ++ (++ = 4 < MIC < 12) | >32 µg/mL | +++ (+++ = MIC ≦ 4) | +++ (+++ = MIC ≦ 4) | – | – | – | – | – | – | – | – | –
4 | Cn1cc(NC(=O)c2cc(NC(=O)c3cc(NC(=O)c4cc5ccccc5cn4)c[nH]3)cn2C)cc1C(=O)NCCN1CCC(F)(F)CC1 [Ib-78] | +++ (+++ = MIC ≦ 4) | +++ (+++ = MIC ≦ 4) | +++ (+++ = MIC ≦ 4) | +++ (+++ = MIC ≦ 4) | +++ (+++ = MIC ≦ 4) | +++ (+++ = MIC ≦ 4) | >32 µg/mL | +++ (+++ = MIC ≦ 4) | +++ (+++ = MIC ≦ 4) | – | – | – | – | – | – | – | – | –
5 | COCCOCCOCCn1cc(NC(=O)c2cc(NC(=O)c3cc4ccccc4cn3)cn2C)cc1C(=O)Nc1cc(C(=O)NCCN2CCOCC2)n(C)c1 [Ib-83] | +++ (+++ = MIC ≦ 4) | +++ (+++ = MIC ≦ 4) | +++ (+++ = MIC ≦ 4) | +++ (+++ = MIC ≦ 4) | +++ (+++ = MIC ≦ 4) | +++ (+++ = MIC ≦ 4) | >32 µg/mL | +++ (+++ = MIC ≦ 4) | +++ (+++ = MIC ≦ 4) | – | – | – | – | – | – | – | – | –
6 | Cn1cc(NC(=O)c2cc(NC(=O)c3cc(NC(=O)c4cc5ccccc5cn4)cn3C)c[nH]2)cc1C(=O)NCCN1CCCC1 [Ib-84] | +++ (+++ = MIC ≦ 4) | +++ (+++ = MIC ≦ 4) | +++ (+++ = MIC ≦ 4) | +++ (+++ = MIC ≦ 4) | +++ (+++ = MIC ≦ 4) | +++ (+++ = MIC ≦ 4) | + (+ = 12 ≦ MIC ≦ 32) | +++ (+++ = MIC ≦ 4) | +++ (+++ = MIC ≦ 4) | – | – | – | – | – | – | – | – | –
7 | Cn1cc(NC(=O)c2cc(NC(=O)c3cc(NC(=O)c4cc5ccccc5cn4)cn3C)c[nH]2)cc1C(=O)NCCN1CCC(F)CC1 [Ib-85] | +++ (+++ = MIC ≦ 4) | +++ (+++ = MIC ≦ 4) | +++ (+++ = MIC ≦ 4) | +++ (+++ = MIC ≦ 4) | +++ (+++ = MIC ≦ 4) | +++ (+++ = MIC ≦ 4) | + (+ = 12 ≦ MIC ≦ 32) | +++ (+++ = MIC ≦ 4) | +++ (+++ = MIC ≦ 4) | – | – | – | – | – | – | – | – | –
8 | Cn1cc(NC(=O)c2cc(NC(=O)c3cc(NC(=O)c4cc5ccccc5cn4)cn3C)c[nH]2)cc1C(=O)NCCN1CCCCC1 [Ib-86] | +++ (+++ = MIC ≦ 4) | +++ (+++ = MIC ≦ 4) | +++ (+++ = MIC ≦ 4) | +++ (+++ = MIC ≦ 4) | +++ (+++ = MIC ≦ 4) | +++ (+++ = MIC ≦ 4) | ++ (++ = 4 < MIC < 12) | +++ (+++ = MIC ≦ 4) | +++ (+++ = MIC ≦ 4) | – | – | – | – | – | – | – | – | –

Now from value to compound:

Row | Minimum Inhibitory Concentration (MIC) (S. pneumoniae ATCC 49619) | Minimum Inhibitory Concentration (MIC) (S. aureus ATCC 27660) | Minimum Inhibitory Concentration (MIC) (S. aureus ATCC 13709) | Minimum Inhibitory Concentration (MIC) (S. pneumoniae ATCC 51422) | Minimum Inhibitory Concentration (MIC) (E. faecalis ATCC 29212) | Minimum Inhibitory Concentration (MIC) [1] | Minimum Inhibitory Concentration (MIC) (C. albicans ATCC 38247) | Minimum Inhibitory Concentration (MIC) (E. faecium ATCC 51559) | Minimum Inhibitory Concentration (MIC) (B. cereus ATCC 11778) | MIC (S. pneumoniae ATCC 49619; Streptococcus pneumoniae, ATCC49619, read-out: Minimum Inhibitory Concentration (MIC)) [µg/mL] | MIC (S. aureus ATCC 27660; [2]) [µg/mL] | MIC (S. aureus ATCC 13709; [2]) [µg/mL] | MIC (S. pneumoniae ATCC 51422; Streptococcus pneumoniae, read-out: Minimum Inhibitory Concentration (MIC)) [µg/mL] | MIC (E. faecalis ATCC 29212; Enterococcus faecalis, ATCC29212, read-out: Minimum Inhibitory Concentration (MIC)) [µg/mL] | MIC ([1]; Staphylococcus epidermidis, ATCC12228, read-out: Minimum Inhibitory Concentration (MIC)) [µg/mL] | MIC (C. albicans ATCC 38247; Candida albicans, ATCC38247, read-out: Minimum Inhibitory Concentration (MIC)) [µg/mL] | MIC (E. faecium ATCC 51559; Enterococcus faecium, read-out: Minimum Inhibitory Concentration (MIC)) [µg/mL] | MIC (B. cereus ATCC 11778; Bacillus cereus, ATCC11778, read-out: Minimum Inhibitory Concentration (MIC)) [µg/mL] | SMILES
9 | +++ (+++ = MIC ≦ 4) | +++ (+++ = MIC ≦ 4) | +++ (+++ = MIC ≦ 4) | +++ (+++ = MIC ≦ 4) | +++ (+++ = MIC ≦ 4) | +++ (+++ = MIC ≦ 4) | >32 µg/mL | +++ (+++ = MIC ≦ 4) | +++ (+++ = MIC ≦ 4) | – | – | – | – | – | – | – | – | – | Cn1cc(NC(=O)c2cc(NC(=O)c3cc(NC(=O)c4cc5ccccc5cn4)cn3C)c[nH]2)cc1C(=O)NCCN1CCSCC1 [Ib-87]
10 | +++ (+++ = MIC ≦ 4) | +++ (+++ = MIC ≦ 4) | +++ (+++ = MIC ≦ 4) | +++ (+++ = MIC ≦ 4) | +++ (+++ = MIC ≦ 4) | +++ (+++ = MIC ≦ 4) | >32 µg/mL | +++ (+++ = MIC ≦ 4) | +++ (+++ = MIC ≦ 4) | – | – | – | – | – | – | – | – | – | Cn1cc(NC(=O)c2cc(NC(=O)c3cc(NC(=O)c4cc5ccccc5cn4)cn3C)c[nH]2)cc1C(=O)NCCN1CCC(F)(F)CC1 [Ib-88]
11 | +++ (+++ = MIC ≦ 4) | +++ (+++ = MIC ≦ 4) | +++ (+++ = MIC ≦ 4) | +++ (+++ = MIC ≦ 4) | +++ (+++ = MIC ≦ 4) | +++ (+++ = MIC ≦ 4) | >32 µg/mL | +++ (+++ = MIC ≦ 4) | +++ (+++ = MIC ≦ 4) | – | – | – | – | – | – | – | – | – | Cn1cc(NC(=O)c2cc(NC(=O)c3cc(NC(=O)c4cc5ccccc5cn4)cn3C)c[nH]2)cc1C(=O)NCCc1ccccn1 [Ib-93]
12 | – | – | – | – | – | – | – | – | – | < 4 | < 4 | < 4 | < 4 | < 4 | < 4 | > 32 | < 4 | < 4 | Cn1cc(NC(=O)c2ccc(NC(=O)c3cc(NC(=O)c4cc5ccccc5cn4)cn3C)cc2)cc1C(=O)NCCN1CCOCC1 [Ic-1]
13 | +++ (+++ = MIC ≦ 4) | +++ (+++ = MIC ≦ 4) | +++ (+++ = MIC ≦ 4) | +++ (+++ = MIC ≦ 4) | +++ (+++ = MIC ≦ 4) | +++ (+++ = MIC ≦ 4) | >32 µg/mL | +++ (+++ = MIC ≦ 4) | +++ (+++ = MIC ≦ 4) | – | – | – | – | – | – | – | – | – | Cn1cc(NC(=O)c2ccc(NC(=O)c3cc(NC(=O)c4cc5ccccc5cn4)cn3C)cc2)cc1C(=O)NCCN1CCC(F)CC1 [Ic-3]
14 | +++ (+++ = MIC ≦ 4) | +++ (+++ = MIC ≦ 4) | +++ (+++ = MIC ≦ 4) | +++ (+++ = MIC ≦ 4) | +++ (+++ = MIC ≦ 4) | +++ (+++ = MIC ≦ 4) | >32 µg/mL | +++ (+++ = MIC ≦ 4) | +++ (+++ = MIC ≦ 4) | – | – | – | – | – | – | – | – | – | Cn1cc(NC(=O)c2ccc(NC(=O)c3cc(NC(=O)c4cc5ccccc5cn4)cn3C)cc2)cc1C(=O)NCCN1CCC(F)(F)CC1 [Ic-4]
